Test results reported in US20040005686A1, “Crystalline structure of human MAPKAP kinase-2” (Pharmacia Corporation, priority 2002, published 2004).
Each block holds one molecule with its values, some of them ahead of it. Ends that are not written are not given here.

Legend:
MK-2 = details: cited from earlier work
[1] = target: T1, Human MAPKAP kinase-2 (45-371) (human, UniProt P49137 45-371); experiment: X-ray crystallography of MK-2 co-crystallized with AMP-PNP, SC-83598 and MgCl2
T1 construct: Expressed in E. coli as a GST fusion; One copy of the complex per asymmetric unit; also called MK-2(45-371); MK-2
T1 sequence (P49137 45-371 limits assumed): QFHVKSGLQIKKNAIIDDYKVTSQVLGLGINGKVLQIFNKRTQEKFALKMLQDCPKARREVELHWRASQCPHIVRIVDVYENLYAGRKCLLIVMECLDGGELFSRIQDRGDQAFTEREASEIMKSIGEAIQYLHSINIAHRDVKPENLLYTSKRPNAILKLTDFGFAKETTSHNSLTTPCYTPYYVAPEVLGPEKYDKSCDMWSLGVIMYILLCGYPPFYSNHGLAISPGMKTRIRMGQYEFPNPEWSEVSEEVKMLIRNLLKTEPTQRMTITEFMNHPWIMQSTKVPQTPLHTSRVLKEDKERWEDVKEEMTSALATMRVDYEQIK
Protocol: Following this general procedure the co-crystals were grown by sitting drop vapor diffusion. […] This protein solution was mixed in a 1:1 ratio with a reservoir solution containing around 1.6-2.6M ammonium sulfate and 100 mM sodium acetate, the reservoir solution being at a pH of between around 4.2-5.4. Small bipyramidal or prism-shaped crystals appeared in the drops in 1-2 days and grew to as large as 0.4 mm×0.4 mm in about 1 to 3 weeks.
Small bipyramidal or prism-shaped crystals appeared in the drops in 1-2 days and grew to as large as 0.4 mm×0.4 mm over 1-3 weeks.

Molecule: C[S+]([O-])c1ccc(-c2nc(-c3ccncc3)c(-c3ccc(F)cc3)[nH]2)cc1 (centres unmarked) [SB203580]
activation of MK-2 (MK-2): inhibit activation of MK-2

binding result [1]: binds
B1: SC-83598 (13-residue inhibitor peptide) (peptide)
peptide: KKKALLRQLGVAA
modifications: not fully specified
